The experiment concerns the target C5aR (Homo sapiens (Human), UniProt P21730). The experiment in a line: Chemotaxis assay (inhibition of C5aR mediated migration towards C5a). The class given is cell-based. The note with it: inhibition in the chemotaxis assay (Example 14 B.3); U937 or neutrophil cells, 0.03 nM C5a. As to the method: U937 cells are a monocytic cell line which express C5aR, and are available from ATCC (VA). These cells were cultured as a suspension in RPMI-1640 medium supplemented with 2 mM L-glutamine, 1.5 g/L sodium bicarbonate, 4.5 g/L glucose, 10 mM HEPES, 1 mM sodium pyruvate, and 10% FBS. Cells were grown under 5% CO2/95% air, 100% humidity at 37° C. and subcultured twice weekly at 1:6 (cells were cultured at a density range of 1×10^5 to 2×10^6 cells/mL) and harvested at 1×10^6 cells/mL. Prior to assay, cells are treated overnight with 0.5 mM of cyclic AMP (Sigma, Ohio) and washed once prior to use. cAMP treated U937 cells can be used in C5aR ligand binding and functional assays.
Optionally, human or murine neutrophils can be used to assay for compound activity. Neutrophils may be isolated from fresh human blood using density separation and centrifigation. Briefly, whole blood is incubated with equal parts 3% dextran and allowed to separate for 45 minutes. After separation, the top layer is layered on top of 15 mls of Ficoll (15 mls of Ficoll for every 30 mls of blood suspension) and centrifuged for 30 minutes at 400×g with no brake. The pellet at the bottom of the tube is then isolated and resuspended into PharmLyse RBC Lysis Buffer (BD Biosciences, San Jose, Calif.) after which the sample is again centrifuged for 10 minutes at 400×g with brake. The remaining cell pellet is resuspended as appropriate and consists of isolated neutrophils.
Optionally, compounds may be further assayed for their ability to inhibit chemotaxis in cells. Chemotaxis assays are performed using 5 μm pore polycarbonate, polyvinylpyrrolidone-coated filters in 96-well chemotaxis chambers (Neuroprobe; Gaithersburg, Md.) using chemotaxis buffer (Hank's balanced salt solution (HBSS) and 1% FBS). C5aR ligands (i.e., C5a, R&D Systems; Minneapolis, Minn.) are use to evaluate compound mediated inhibition of C5aR mediated migration. Other chemokines (i.e., SDF-1α; R&D Systems; Minneapolis, Minn.) are used as specificity controls. The lower chamber is loaded with 29 μl of chemokine (i.e., 0.03 nM C5a) and varying amounts of compound; the top chamber contains 100,000 U937 or neutrophil cells in 20 μl. The chambers are incubated 1.5 hours at 37° C., and the number of cells in the lower chamber quantified either by direct cell counts in five high powered fields per well or by the CyQuant assay (Molecular Probes), a fluorescent dye method that measures nucleic acid content and microscopic observation.
Sequence of C5aR (P21730 whole entry): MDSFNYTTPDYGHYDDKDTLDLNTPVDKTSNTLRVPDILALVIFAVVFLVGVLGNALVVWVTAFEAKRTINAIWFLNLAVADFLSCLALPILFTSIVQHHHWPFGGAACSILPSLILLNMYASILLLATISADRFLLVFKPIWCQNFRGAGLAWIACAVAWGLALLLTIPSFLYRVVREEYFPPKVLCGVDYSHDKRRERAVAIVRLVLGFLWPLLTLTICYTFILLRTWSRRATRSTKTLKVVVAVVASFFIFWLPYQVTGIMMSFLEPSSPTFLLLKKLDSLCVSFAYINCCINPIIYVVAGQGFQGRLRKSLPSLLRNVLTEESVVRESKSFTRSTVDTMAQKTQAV
Turning to `CCc1cccc(CC)c1-n1nc2c(c1-c1ccc(F)c3[nH]ccc13)CN(Cc1ccccn1)C2(C)C` [Compound 1.019], the half-inhibitory concentration (IC50) (as a rule, the concentration at which inhibition is half-maximal) was 0.005 to 0.05 µM.
Under `Cc1cccc(C)c1-n1nc2c(c1-c1ccc3[nH]ccc3c1)CN(CC(C)(C)C)C2(C)C` [Compound 1.052] stands 0.005 to 0.05 µM.
Then `CCc1cccc(CC)c1-n1nc2c(c1-c1c(F)ccc3[nH]ccc13)CN(Cc1ccc(C(F)(F)F)cc1C(F)(F)F)C2(C)C` [Compound 1.043], with 0.005 to 0.05 µM; and `CCc1cccc(CC)c1-n1nc2c(c1-c1ccc(F)c3[nH]ccc13)CN(Cc1ccc(F)cc1Cl)C2(C)C` [Compound 1.012], with 0.005 to 0.05 µM; and `CCc1cccc(CC)c1-n1nc2c(c1-c1ccc(F)c3[nH]ccc13)CN(Cc1cccnc1)C2(C)C` [Compound 1.016], with 0.05 to 0.5 µM.
Under `CCc1cccc(CC)c1-n1nc2c(c1-c1ccc(F)c3[nH]ccc13)CN(Cc1ccccc1)C2(C)C` [Compound 1.021] stands less than 0.005 µM; under `CCc1cccc(CC)c1-n1nc2c(c1-c1cccc3[nH]cc(Cl)c13)CN(Cc1ccc(C(F)(F)F)cc1C(F)(F)F)C2(C)C` [Compound 1.034], 0.005 to 0.05 µM.
Compound `CCc1cccc(CC)c1-n1nc2c(c1-c1ccc(F)c3[nH]cc(Cl)c13)CN(Cc1ccc(Cl)cc1F)C2(C)C` [Compound 1.015] came in with an IC50 of 0.005 to 0.05 µM.
Under `CCc1cccc(CC)c1-n1nc2c(c1-c1ccc(F)c3[nH]ccc13)CN(C(=O)CNC(=O)OC(C)(C)C)C2(C)C` [Compound 1.007] stands 0.05 to 0.5 µM.
Then `CCc1cccc(CC)c1-n1nc2c(c1-c1cc(F)c3[nH]ccc3c1)CN(Cc1ccc(C(F)(F)F)cc1C(F)(F)F)C2(C)C` [Compound 1.027], with 0.005 to 0.05 µM; and `Cc1cccc(C)c1-n1nc2c(c1-c1ccc3[nH]ccc3c1)CN(C(=O)CC1CCCC1)C2` [Compound 1.057], with not below 0.5 µM.
Then `Cc1cccc(C)c1-n1nc2c(c1-c1ccc3[nH]ccc3c1)CN(C(=O)C(C)C1CCCCC1)C2` (stereo not shown) [Compound 1.060], with 0.05 to 0.5 µM.
For the compound `CCc1cccc(CC)c1-n1nc2c(c1-c1ccc3[nH]ccc3c1)CN(C(c1ccccc1)C(C)(C)O)C2(C)C` (stereo not shown) [Compound 1.049], the half-maximal inhibitory concentration (IC50) lay in the range of 0.05 to 0.5 µM.
Under `CCc1cccc(CC)c1-n1nc2c(c1-c1ccc(F)c3[nH]cc(Cl)c13)CN(Cc1ccc(F)cc1F)C2(C)C` [Compound 1.017] stands less than 0.005 µM.
Then `CCc1cccc(CC)c1-n1nc2c(c1-c1ccc(F)c3[nH]ccc13)CN(Cc1cccc(F)c1)C2(C)C` [Compound 1.018], with 0.005 to 0.05 µM; and `CCc1cccc(CC)c1-n1nc2c(c1-c1ccc(F)c3[nH]ccc13)CN(Cc1ccc(Cl)cc1Cl)C2(C)C` [Compound 1.020], with 0.005 to 0.05 µM; and `CCc1cccc(CC)c1-n1nc2c(c1-c1ccc(F)c3[nH]ccc13)CN(C(=O)NC(C)C)C2(C)C` [Compound 1.003], with not below 0.5 µM.
In turn, `CCc1cccc(CC)c1-n1nc2c(c1-c1cccc3[nH]cc(C)c13)CN(Cc1ccc(C(F)(F)F)cc1C(F)(F)F)C2(C)C` [Compound 1.035] displayed an IC50 of 0.005 to 0.05 µM.
In turn, `CCc1cccc(CC)c1-n1nc2c(c1-c1ccc(F)c3[nH]ccc13)CN(C(=O)C(C)(C)C)C2(C)C` [Compound 1.033] gave a half-maximal inhibitory concentration (IC50) of 0.005 to 0.05 µM.
`CCc1cccc(CC)c1-n1nc2c(c1-c1ccc(F)c3[nH]cc(Cl)c13)CN(Cc1ccc(C(F)(F)F)cc1C(F)(F)F)C2(C)C` [Compound 1.011] displayed a concentration for half-maximal inhibition (IC50) of 0.005 to 0.05 µM.
Then `CCc1cccc(CC)c1-n1nc2c(c1-c1ccc(F)c3[nH]ccc13)CN(Cc1ccccc1C(F)(F)F)C2(C)C` [Compound 1.029], with 0.005 to 0.05 µM.
The compound `CCc1cccc(CC)c1-n1nc2c(c1-c1cccc3[nH]ccc13)CN(Cc1cc(C(F)(F)F)ccc1C(F)(F)F)C2(C)C` [Compound 1.038] showed an IC50 of 0.005 to 0.05 µM.
Under `Cc1cccc(C)c1-n1nc2c(c1-c1ccc3[nH]ccc3c1)CN(C(=O)c1ccccc1)C2` [Compound 1.066] stands not below 0.5 µM; under `CCc1cccc(CC)c1-n1nc2c(c1-c1ccc(Cl)c3[nH]ccc13)CN(Cc1ccc(C(F)(F)F)cc1C(F)(F)F)C2(C)C` [Compound 1.024], less than 0.005 µM; under `Cc1cccc(C)c1-n1nc2c(c1-c1ccc3[nH]ccc3c1)CN(S(=O)(=O)c1ccc(C(C)(C)C)cc1)C2` [Compound 1.063], not below 0.5 µM.
`CCc1cccc(CC)c1-n1nc2c(c1-c1ccc(C(=O)O)c3[nH]ccc13)CN(Cc1ccc(C(F)(F)F)cc1C(F)(F)F)C2(C)C` [Compound 1.005]: the IC50 is not below 0.5 µM.
Then `Cc1cccc(C)c1-n1nc2c(c1-c1ccc3[nH]ccc3c1)CN(CC(C)(C)C)C2` [Compound 1.053], with 0.05 to 0.5 µM.
Then `Cc1cccc(C)c1-n1nc2c(c1-c1ccc3[nH]ccc3c1)CN(C(=O)OC(C)(C)C)C2=O` [Compound 1.055], with not below 0.5 µM; and `Cc1cccc(C)c1-n1nc2c(c1-c1ccc3[nH]ccc3c1)CN(C(=O)c1ccc(C(C)(C)C)cc1)C2` [Compound 1.064], with not below 0.5 µM.
Under `CCc1cccc(CC)c1-n1nc2c(c1-c1c(F)cc(F)c3[nH]ccc13)CN(Cc1ccc(C(F)(F)F)cc1C(F)(F)F)C2(C)C` [Compound 1.037] stands less than 0.005 µM; under `CCc1cccc(CC)c1-n1nc2c(c1-c1ccc(F)c3[nH]ccc13)CN(Cc1ccc(F)cc1)C2(C)C` [Compound 1.023], less than 0.005 µM.
Consider `CCc1cccc(CC)c1-n1nc2c(c1-c1cccc3[nH]ccc13)CN(C(=O)Cn1nc(C(F)(F)F)cc1C)C2(C)C` [Compound 1.040], for which the IC50 was not below 0.5 µM.
Then `CCc1cccc(CC)c1-n1nc2c(c1-c1cccc3[nH]ccc13)CN(Cc1ccc(C(F)(F)F)cc1C(F)(F)F)C2(C)C` [Compound 1.045], with 0.005 to 0.05 µM; and `Cc1cccc(C)c1-n1nc2c(c1-c1ccc3[nH]cnc3c1)CN(CC(C)(C)C)C2` [Compound 1.051], with not below 0.5 µM; and `CCc1cccc(CC)c1-n1nc2c(c1-c1ccc(F)c3[nH]ccc13)CN(C(=O)c1ccccn1)C2(C)C` [Compound 1.028], with 0.05 to 0.5 µM.
Turning to `CCOC(=O)C(c1ccccc1)N1Cc2c(nn(-c3c(CC)cccc3CC)c2-c2ccc3[nH]ccc3c2)C1(C)C` (stereo not shown) [Compound 1.050], the IC50 lay within 0.005 to 0.05 µM.
Under `CCc1cccc(CC)c1-n1nc2c(c1-c1cccc3[nH]ccc13)CN(Cc1cc(Cl)ccc1Cl)C2(C)C` [Compound 1.042] stands 0.005 to 0.05 µM; under `Cc1cccc(C)c1-n1nc2c(c1-c1ccc3[nH]ccc3c1)CN(C(=O)OC(C)(C)C)C2` [Compound 1.067], 0.05 to 0.5 µM; under `CCc1cccc(CC)c1-n1nc2c(c1-c1ccc(F)c3[nH]ccc13)CN(C(=O)CN)C2(C)C` [Compound 1.006], not below 0.5 µM.
Under `Cc1cccc(C)c1-n1nc2c(c1-c1ccc3[nH]ccc3c1)CN(C(=O)[C@@H](O)C(C)C)C2` [Compound 1.062] stands not below 0.5 µM; under `CCc1cccc(CC)c1-n1nc2c(c1-c1ccc(F)c3[nH]ccc13)CN(CC(C)(C)C)C2(C)C` [Compound 1.032], less than 0.005 µM; under `CCc1cccc(CC)c1-n1nc2c(c1-c1cc(F)c(OC)c3[nH]ccc13)CN(Cc1ccc(C(F)(F)F)cc1C(F)(F)F)C2(C)C` [Compound 1.002], less than 0.005 µM.
Then `CCc1cccc(CC)c1-n1nc2c(c1-c1cccc3[nH]ccc13)CN(Cc1ccccc1C(F)(F)F)C2(C)C` [Compound 1.044], with 0.005 to 0.05 µM.
